One series deals with mice. The conditions noted are these: single i.v. bolus 8 mg/kg 5 min before reperfusion; 45 min occlusion, 24 h reperfusion.
In another series the test system is type I PKA holoenzyme. Put plainly: type I PKA holoenzyme activation. The conditions noted are these: 30 μM, presence and absence of 10 μM cAMP. It is filed as biochemical.
A further series has as its system type II PKA holoenzyme. Put plainly: type II PKA holoenzyme activation. The series is classed as biochemical. The conditions noted are these: 30 μM, presence and absence of 10 μM cAMP.
In another series the target is T1, Epac1 (Homo sapiens, UniProt O95398).
T1 sequence (O95398 191-923 limits assumed): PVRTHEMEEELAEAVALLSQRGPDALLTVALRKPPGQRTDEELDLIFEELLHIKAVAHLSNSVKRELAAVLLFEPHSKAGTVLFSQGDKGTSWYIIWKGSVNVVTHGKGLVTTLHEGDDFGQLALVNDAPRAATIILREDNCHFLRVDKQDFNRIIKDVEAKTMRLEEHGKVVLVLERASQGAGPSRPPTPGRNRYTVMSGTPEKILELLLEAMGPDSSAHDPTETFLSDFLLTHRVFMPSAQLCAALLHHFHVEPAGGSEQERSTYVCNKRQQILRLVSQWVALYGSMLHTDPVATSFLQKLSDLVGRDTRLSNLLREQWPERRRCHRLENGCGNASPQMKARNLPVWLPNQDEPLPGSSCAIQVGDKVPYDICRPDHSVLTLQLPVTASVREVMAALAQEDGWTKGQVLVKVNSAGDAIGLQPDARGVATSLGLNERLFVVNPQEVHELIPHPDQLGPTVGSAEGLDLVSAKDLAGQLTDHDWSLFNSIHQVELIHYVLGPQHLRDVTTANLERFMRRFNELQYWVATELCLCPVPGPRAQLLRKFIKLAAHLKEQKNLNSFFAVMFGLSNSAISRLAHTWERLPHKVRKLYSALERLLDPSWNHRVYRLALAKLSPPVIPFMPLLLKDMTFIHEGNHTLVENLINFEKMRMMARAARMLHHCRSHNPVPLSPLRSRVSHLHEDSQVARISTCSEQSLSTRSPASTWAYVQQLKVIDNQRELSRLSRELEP
Put plainly: biochemical. To be noted: for IC50: read-out: IC50, Epac1 GEF activity. The text has this:
FIGS. 4-8. […] Variations of relative fluorescence units (RFU) were studied as a function of time and fitted to single exponentials.

Series [1] has as its system isolated adult cardiomyocytes. In words: hypoxia-reoxygenation injury of isolated adult cardiomyocytes (LDH release). It is filed as cell-based, mouse. A general note: Release of lactate dehydrogenase indicates damage to the cell membrane.
The next series has as its target T2, Epac2B (Homo sapiens, UniProt Q8WZA2).
T2 construct: expressed in transfected cells; host or cells: HEK293
T2 sequence (Q8WZA2 1-867 isoform Q8WZA2-3): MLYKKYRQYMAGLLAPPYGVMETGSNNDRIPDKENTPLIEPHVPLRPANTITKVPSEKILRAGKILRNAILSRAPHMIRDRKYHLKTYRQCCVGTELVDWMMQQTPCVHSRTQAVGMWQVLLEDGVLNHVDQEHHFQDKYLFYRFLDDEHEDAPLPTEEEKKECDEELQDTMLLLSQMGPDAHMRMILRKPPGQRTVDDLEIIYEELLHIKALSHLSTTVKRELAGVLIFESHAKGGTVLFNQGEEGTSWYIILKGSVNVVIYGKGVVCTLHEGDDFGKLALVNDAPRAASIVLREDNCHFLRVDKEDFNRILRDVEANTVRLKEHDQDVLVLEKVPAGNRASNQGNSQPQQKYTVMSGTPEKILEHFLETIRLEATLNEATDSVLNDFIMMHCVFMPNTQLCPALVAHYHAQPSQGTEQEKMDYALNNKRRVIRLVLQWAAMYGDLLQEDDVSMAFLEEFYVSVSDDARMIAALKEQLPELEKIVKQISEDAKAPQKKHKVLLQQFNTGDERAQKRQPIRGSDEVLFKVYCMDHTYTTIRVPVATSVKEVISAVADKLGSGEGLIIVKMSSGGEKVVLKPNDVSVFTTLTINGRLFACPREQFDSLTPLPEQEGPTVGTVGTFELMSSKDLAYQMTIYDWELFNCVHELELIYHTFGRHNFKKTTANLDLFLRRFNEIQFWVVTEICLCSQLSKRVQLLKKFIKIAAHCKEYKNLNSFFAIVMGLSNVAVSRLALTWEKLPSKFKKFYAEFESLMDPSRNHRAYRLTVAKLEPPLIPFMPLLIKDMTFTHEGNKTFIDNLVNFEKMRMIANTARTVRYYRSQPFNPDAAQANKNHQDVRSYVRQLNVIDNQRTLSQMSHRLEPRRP
Put plainly: Rap1-GTP in HEK293 cells transfected with Epac2B. The series is classed as cell-based. To be noted: 20 μM, 30 min preincubation; S-220 50 μM, 10 min. The procedure:
FIGS. 9-13. Amounts of Rap1-GTP (n=5 in each group, mean±S.E.M) were determined in HEK293 cells transfected with Epac1 (FIGS. 9-11), Epac2A (FIG. 12) or Epac2B (FIG. 13). Cells were preincubated or not with AM-001 (FIGS. 9, 12, and 13), AM-002 (FIG. 10) or AM-003 (FIG. 11) (20 μM, 30 min) and were then treated or not with 8-CPT-AM (10 μM for Epac1 activation and 20 μM for Epac2A activation) or S-220 (50 μM for Epac2B activation) for 10 min. ESI-05 was used as positive control of Epac2A inhibition. Representative immunoblots are shown. […], *[…], ***p<0.001, ****p<0.0001, versus indicated values, one way ANOVA, Bonferroni comparison test.
Human Embryonic Kidney cells line (HEK293): HEK293 cells were maintained is in minimal essential medium with FBS (10%) and penicillin-streptomycin (1%). All media, sera, and antibiotics used in cell culture were purchased from Invitrogen.
The human Epac1/Epac2 expression vector was a gift from Dr J. L. Bos. Cells were transfected using Lipofectamine 2000 (Invitrogen) according to the manufacturer's instructions. HEK293 cells were maintained in MEM with FBS (Foetal Bovine Serum; 10%) and penicillin-streptomycin (1%). All media, sera and antibiotics used in cell culture were purchased from Invitrogen (Cergy Pontoise, France). […]

The subject of series [2] is neonatal rat ventricular myocytes. Put plainly: cytotoxicity in cultured cells. The series is classed as cell-based. To be noted: various types of cultured cells including neonatal rat ventricular myocytes.
Text: Neonatal rat ventricular myocytes (NRVM) isolation: Neonatal rats of 1-2 days old were euthanized by decapitation. The heart was excised and the atria were removed.

Read-outs that look alike come from different tables or passages of the source.

Experimental for mice: Statistical significance was determined by two-way ANOVA followed by Bonferroni post-test or t-test. *p<0.01, **p<0.01, ***p<0.001, versus indicated values
Mice were anesthetized with intraperitoneal ketamine (60 mg/kg) and xylazine (6 mg/kg), intubated and ventilated mechanically. Anesthesia was maintained throughout the chirurgical procedure with 1.5% isoflurane. Body temperature was maintained at 37° C. A left thoracotomy was performed in order to enable coronary artery occlusion with a 7-0 Prolene thread placed around the left coronary artery for 45 min, followed by 24 h of reperfusion. […] Myocardial ischemia was confirmed by the presence of regional cyanosis. Reperfusion was confirmed by visualization of a hyperemic response. At this point, the chest was closed in layers. 24 h after reperfusion, mice were anesthetized again, the coronary artery was reoccluded at the previous site, and the heart was excised after Evans blue perfusion. The area at risk and the infarct area were respectively determined by Evans blue and 2,3,5-triphenyltetrazolium chloride (TTC) staining. The area at risk was identified as the non-blue region and expressed as a percentage of the left ventricle weight. The infarcted area was identified as the TTC negative zone and expressed as a percentage of area at risk.

In the case of `Nc1c(C(=O)Nc2ccc(F)cc2)sc2nc(-c3cccs3)cc(-c3ccccc3)c12` [AM-001, 3-amino-N-(4-fluorophenyl)-4-phenyl-6-(thiophen-2-yl)thieno[2,3-b]pyridine-2-carboxamide], in the series with mice, the “ratio of infarct size to area-at-risk” value is listed as 36±3%. The “effect on type I PKA holoenzyme activation” value with type I PKA holoenzyme was “did not influence”. Further, in the series on type II PKA holoenzyme, the “effect on type II PKA holoenzyme activation” value is given as “did not influence”. Besides, the “effect on Epac1 GEF (exchange) activity” value on Epac1 (30 μM Sp-8-CPT, 20 μM inhibitor) is listed as “prevented Epac1 GEF activity”. Moreover, the 50% inhibitory concentration (IC50) is 47.8 ± 1.1 µM at Epac1 (Sp-8-CPT at its EC50 for the isoform) and 48.5 ± 1 µM at Epac1 (saturating concentration of Sp-8-CPT). In addition, the “effect on 8-CPT-AM-induced cardiomyocyte death and hypertrophy” value in series [1] (AM-001 20 μM, 8-CPT-AM 10 μM) is on record as “inhibited the effect”. Further, the “cardiomyocyte survival by LDH release” value in series [1] (HX+R condition, 20 μM, 30 min pretreatment, vs control cells) is given as “significantly increased cardiomyocyte survival”. Besides, the “inhibition of the increase in Rap1-GTP induced by S-220” value at Epac2B is given as “ineffective”. Moreover, the cytotoxicity entry in series [2] is reported as “no apparent cytotoxicity”.

A word on the IC50: it is the concentration that inhibits the measured activity by half.

The values are drawn from patent US20210230179A1, “THIENO[2,3-B]PYRIDINE DERIVATIVES AS EPAC INHIBITORS AND THEIR PHARMACEUTICAL USES” (INSTITUT NATIONAL DE LA SANTE ET DE LA RECHERCHE MEDICALE …, priority 2018, published 2021).
